Here are results for 4 molecules from patent publication EP0374249A1, “METHOD OF STERILIZING PLANT POLLEN” (VSESOJUZNY NAUCHNO-ISSLEDOVATELSKY INST. SELSKOKHOZYAISTV. …, priority 1988, dated 1989).

The subject of experiment [1] is Sonneblume Sorte Peredovik. Briefly: Field test of pollen sterilisation, sunflower variety Peredovik. The experiment is classed as in vivo, Sonnenblume. Conditions: period V, 0.5% emulsion; for Prozentsatz der Sterilität: 3 kg/ha (N-Karbamoylmaleaminsäure) or 0.1% emulsion, 1 kg/ha (N-(3-Dimethylaminopropyl)-maleaminsäure); for Ansetzen von Ächänen bei freier Bestäubung in %: 3 kg/ha or 0.1% emulsion, 1 kg/ha, free pollination. From the text: (§1) Die gametozide Aktivität der erfindungsgemässen Sterilisationsmittel war im Feldversuch in verschiedenen Bodenklimatischen Zonen mit Teilstücken von 10 m^2 Grösse in drei- bis viermaliger Wiederholung nachgewiesen. Jedes Sterilisationsmittel wurde mindestens 5 Jahre lang geprüft.
(§2) Die Entwicklung der Perioden der Organogenese wird zytologischüberwacht. Die Behandlung von Pflanzen mit dem Sterilisationsmittel erfolgt am Anfang der fünften Periode der Organogenese nach Kupermann.
(§3) Zur Kontrolle der chemischen Sterilisation des Sonnenblumenpollens werden für jede Verbindung 45 behandelte Pflanzen jeder Wiederholung benutzt, wobei 15 Pflanzen von denen zwecks Selbstbestäurun^g des Blütenkörbchens isoliert werden, 15 andere Pflanzen mit einem Pollengemisch, gesammelt von 20 bis 25 behandelten isolierten Körbchen, bestäubt werden und 15 Pflanzen für freie Bestäubeung gelassen werden, damit das Ansetzen von Ächänen mit dem Pollen der Vaterform kontrolliert werden kann.
(§4) Man beurteilt die Pollensterilität von Pflanzen der Sonnenblume nach der Pollenfertilität und -keimfähigkeit, nach den morphologischen Besonderheiten von Spermien und nach der Fähigkeit von Achänen zum Ansetzen bei der Bestäubung der behandelten isolierten Pflanzen mit dem Pollen der unbehandelten väterlichen Form. Die Lebensfähigkeit der Eizelle wird nach der Samenbildung von behandelten Pflanzen bei freier Bestäubung der väterlichen Form ermittelt.
(§5) Pflanzen der Sonneblume Sorte Peredovik und Linie BK-119 werden in der V. Periode der Organogenese (nach Kupermann) mit einer 0,5%igen wässrigen Emulsion der N-Karbamoylmaleaminsäure behandelt. Die Emulsion enthält 0,01 Masse% Dimethylsulfoxid und 0,1 Masse% Kalziumalkylbenzolsulfonat mit 12 bis 14 Kohlenstoffatomen. Der Verbrauch an Präparat beträgt 3 kg/ha. Die gleichen Pflanzen werden mit einer 0,1masseprozentigen wässrigen Emulsion der N-(3-Dimethylaminopropyl)-maleaminsäure behandelt. Im letzten Falle enthält die Emulsion 0,01 Masse% Dodezylsulfat und 0,1 Masse% Kalziumalkylbenolsulfonat mit 12 bis 14 Kohlensotffatomen. Der Verbrauch an Präparat beträgt 1 kg/ha. Als Kontrolle dienen Pflanzen, behandelt mit einem Verdünner.ohne Sterilisationsmittel. Die Prufergenisse sind in der Tabelle 14 dargestellt. […] Periode der Organogenese erhalten.

The subject of the next experiment is Linie BK-119. Briefly: Field test of pollen sterilisation, sunflower line BK-119. The experiment is classed as in vivo, Sonnenblume. Conditions: period V, 0.5% emulsion; for Prozentsatz der Sterilität: 3 kg/ha (N-Karbamoylmaleaminsäure) or 0.1% emulsion, 1 kg/ha (N-(3-Dimethylaminopropyl)-maleaminsäure); for Ansetzen von Ächänen bei freier Bestäubung in %: 3 kg/ha or 0.1% emulsion, 1 kg/ha, free pollination.
From the text: as §1, §2, §3, §4, §5

SMILES strings stand for the structures.

For the molecule `NC(=O)NC(=O)/C=C\C(=O)O` [Beispiel 59, N-Karbamoylmaleaminsäure], in experiment [1], the “Prozentsatz der Sterilität” value is 100,0% and the “Ansetzen von Ächänen bei freier Bestäubung in %” value was 81,7%.
Regarding `CN(C)CCCNC(=O)/C=C\C(=O)O` [Beispiel 60, N-(3-Dimethylaminopropyl)-maleaminsäure], in experiment [1], the “Prozentsatz der Sterilität” value is 100,0% and the “Ansetzen von Ächänen bei freier Bestäubung in %” value is reported as 84,9%.
For `NC(=O)NC(=O)/C=C\C(=O)O` [Beispiel 61, N-Karbamoylmaleaminsäure], in the experiment on Linie BK-119, the “Prozentsatz der Sterilität” value is reported as 100,0% and the “Ansetzen von Ächänen bei freier Bestäubung in %” value is on record as 82,5%.
In the same order, the values of `CN(C)CCCNC(=O)/C=C\C(=O)O` [Beispiel 64, N-(3-Dimethylaminopropyl)-maleaminsäure] are 100,0% and 80,4%.
